Experimental findings from patent publication US10220024B2, “Method of inhibiting cancer cell, method for detecting cancer cell, and system for detecting cancer cell” (CANON KABUSHIKI KAISHA, priority 2012, dated 2019) are described below.

A short description of data set [1]: Measurement of fluorescent property of compound (spectrofluorometer). In kind it is physicochemical. The following applies: 5 μM DMSO solution. The protocol: The excitation wavelength and fluorescence wavelength of the compound were measured by a FL4500 spectrofluorometric measuring machine manufactured by Hitachi High-Technologies Corporation.
For data set [2], the system named is Human pancreas cancer cells, KLM-1. Nature of the data set: Cancer cell inhibitory (growth suppressive) action against pancreatic cancer cells, CellTiter-Glo viable cell count. The class given is cell-based. The note with it: KLM1, KLM-1, 10 μg/mL, 24 hours. The protocol:
(§1) Observation on cancer cell inhibitory (growth suppressive) action against pancreatic cancer cells Human pancreas cancer cells, KLM-1, were pre-cultured in RPMI1640 medium containing 10% FBS at 37° C. in a 5% CO2 ambient. Thereafter, 4,000 cells were seeded per well of a 96-well plate and further cultured for 24 hours. Subsequently, Compound (1) was added to the medium so as to obtain a final concentration of 10 μg/mL and cultured at 37° C. for 24 hours in a 5% CO2 ambient. The cultured cells were analyzed for viable cell count according to CellTiter-Glo Luminescent Cell Viability Assay (manufactured by Promega KK.). As a reference, the number of cells cultured in a medium containing a 0.1% dimethylsulfoxide solution (hereinafter, simply referred to as DMSO) in place of a medium containing Compound (1), in the aforementioned operation, was regarded (100%).
Viable cell count was analyzed in the same manner as in Experimental Example 1 except that Compound (1) of Experimental Example 1 was changed to compounds shown in Table 2.
Viable cell count was analyzed in the same manner as in Experimental Example 1 except that Compound (1) was changed to comparative compounds 1 to 4.
Viable cell counts of Experimental Examples 1 to 7 and Comparative Examples 1 to 4 were analyzed to obtain growth rates.
Evaluation of cancer cell inhibition against the pancreatic cancer cells (KLM-1) (growth suppression) was made based on the following criteria. Note that the growth rate in Examples herein is a numerical value of the number of cells obtained after culture relative to the number of cells (regarded as 100) grown in a medium containing 0.1% DMSO. Evaluation of cancer cell inhibition against the pancreatic cancer cells (KLM-1) was made as follows. • A: Cancer cell growth rate is less than 20% (cancer cell inhibitory (growth suppressive) effect is extremely high) • B: Cancer cell growth rate is 20% or more and less than 50% (cancer cell inhibitory (growth suppressive) effect is high) • C: Cancer cell growth rate is 50% or more (cancer cell inhibitory (growth suppressive) effect is low)
In general terms: Cellular ATP, detected with luciferase, serves as a proxy for viable cell number.

Data set [3] deals with Prostatic cancer cells, PC-3. Nature of the data set: Cancer cell inhibitory (growth suppressive) action against prostatic cancer cells, CellTiter-Glo viable cell count. In kind it is cell-based. The note with it: PC-3, 10 μg/mL, 24 hours. The procedure:
as §1, with “Prostatic” for “Observation on cancer cell inhibitory (growth suppressive) action against pancreatic cancer cells Human pancreas”, “PC-3,” for “KLM-1,”, “(11)” for “(1)”, “(11),” for “(1),”, “used as 100.” for “regarded (100%).”
Viable cell count was analyzed in the same manner as in Experimental Example 8 except that the compounds shown in Table 3 were used in place of Compound (11) of Experimental Example 8.
Viable cell count was analyzed in the same manner as in Experimental Example 8 except that comparative compounds 1 to 4 were used in place of Compound (11) of Experimental Example 8.
The growth rate in Examples herein is a numerical value of the number of cells obtained after culture relative to the number of cells (regarded as 100) grown in a medium containing 0.1% DMSO.
Evaluation of cancer cell inhibition against the prostatic cancer cells (PC-3) was made as follows. • A: Cancer cell growth rate is less than 20% (cancer cell inhibitory (growth suppressive) effect is extremely high) • B: Cancer cell growth rate is 20% or more and less than 50% (cancer cell inhibitory (growth suppressive) effect is high) • C: Cancer cell growth rate is 50% or more (cancer cell inhibitory (growth suppressive) effect is low)

Data set [4] has as its system K562 ALDH (+) fraction (cancer stem cells). The data set is described as follows: Cancer stem-cell selective inhibitory action against chronic myelocytic leukemia cells, ALDH (+) fraction, CellTiter-Glo. In kind it is cell-based. The following applies: Homo sapiens, 10 μg/ml, 24 hours. The procedure: (§2) Human chronic myelocytic leukemia cells, K562, were pre-cultured in RPMI1640 medium containing 10% FBS at 37° C. in a 5% CO2 ambient. Then, a fraction containing 80% or more of cancer stem cells was extracted by use of ALDEFLUOR reagent (manufactured by VERITAS Corporation) and FACSAria flow cytometry (manufactured by Nippon Becton, Dickinson and Company). Subsequently, Compound (5) was added to the medium so as to obtain a final concentration of 10 μg/mL and cultured at 37° C. for 24 hours in a 5% CO2 ambient. The cultured cells were analyzed for viable cell count according to CellTiter-Glo Luminescent Cell Viability Assay (manufactured by Promega KK.). As a reference, the number of cells cultured in a medium containing a 0.1% dimethylsulfoxide solution (hereinafter, simply referred to as DMSO) in place of a medium containing Compound (1), in the aforementioned operation, was used as 0.1. Note that hereinafter, an ALDEFLUOR reagent positive fraction (deemed as cancer stem cells) is represented by ALDH (+), whereas an ALDEFLUOR reagent negative fraction (not deemed as cancer stem cells) is represented by ALDH (−), in some cases.
(§3) The same operation as in Experimental Example 12 was repeated except that Compound (5) in Experimental Example 12 was changed to the compounds shown in Table 4 and final concentrations shown in Table 4 were used and viable cell counts were separately analyzed. Note that the growth rate in Examples herein is a numerical value of the number of cells obtained after culture relative to the number of cells (regarded as 0.1) grown in a medium containing 0.1% DMSO.
(§4) The same operation as in Experimental Example 12 was repeated except that Compound (5) in Experimental Example 12 was changed to Imatinib (manufactured by NOVARTIS), which is a general anticancer drug, and comparative compounds shown in Table 4 and final concentrations shown in Table 4 were used and viable cell counts were separately analyzed.
(§5) The growth suppressive effect of cancer stem cells was evaluated based on the following criteria. Note that the growth rate in Examples herein is a numerical value relative to the number of cells (regarded as 0.1) grown in a medium containing 0.1% DMSO. • A: The value of ALDH (+) is less than 0.5 (growth suppressive effect against cancer stem cells is extremely high) • B: The value of ALDH (+) is 0.5 or more and less than 0.95 (growth suppressive effect against cancer stem cells is high) • C: The value of ALDH (+) is 0.95 or more (no growth suppressive effect against cancer stem cells)
(§6) Furthermore, superiority of cancer stem cells was evaluated by comparing cancer stem cells to cancer cells based on the following criteria. ALDH (+) represents cancer stem cells; whereas ALDH (−) represents general cancer cells. • A: The value of ALDH (+)/ALDH (−) is less than 0.8 (selective inhibitory effect against cancer stem cells is extremely high) • B: The value of ALDH (+)/ALDH (−) is 0.8 or more and less than 0.95 (selective inhibitory effect against cancer stem cells is high) • C: The value of ALDH (+)/ALDH (−) is 0.95 or more (no selective inhibitory effect against cancer stem cells)

Data set [5] has as its system K562 ALDH (−) fraction (general cancer cells). Nature of the data set: Cancer stem-cell selective inhibitory action against chronic myelocytic leukemia cells, ALDH (−) fraction, CellTiter-Glo. The class given is cell-based, Human. The note with it: Homo sapiens, 10 μg/ml, 24 hours, relative to 0.1% DMSO, read-out: ALDH(−) (growth rate). The protocol:
as §2, §3, §4, §5, §6

Data set [6] has as its system K562-BFP human chronic myelocytic leukemia cells transplanted to zebra young fish. The data set is described as follows: Cancer metastasis suppressive effect in metastatic foci of cancer cells transplanted to zebra young fish. In kind it is in vivo. The following applies: metastatic foci (region within 300 to 450 μm from a transplanted tumor). The text has this:
From cell strain K562-BFP, which is a strain of human chronic myelocytic leukemia cells having fluorescent protein TagBFP constantly expressed, a fraction (ALDH (+)) containing 80% or more of cancer stem cells was extracted by use of a cancer stem cell marker, ALDEFLUOR reagent (manufactured by VERITAS Corporation) and FACSAria flow cytometry (manufactured by Nippon Becton, Dickinson and Company). The ALDH (+) fraction and a ALDH (−) fraction of general cancer cells were transplanted separately to zebra young fish (MieKomachi lineage, 2 days after fertilization) and the fish were raised in a 32° C. environment. Furthermore, 24 hours after transplantation, Compound (16) was added to breeding water so as to obtain a final concentration of […] and fish were raised for two days in a 32° C. environment. Cells transplanted to the zebra young fish were observed under MZ16F fluorescent stereoscopic microscope (manufactured by Leica Microsystems) and a fluorescent image of the cells after 24 hours was photographed and then fluorescent intensity was quantified.
As a reference, the fluorescent intensity of cells, which were cultured in the same operation method as above in a medium containing a 0.1% DMSO solution in place of Compound (16), was used.
Fluorescent images were photographed in the same manner as in Experimental Example 29 except that Imatinib and Dasatinib were respectively used in place of the compound (16) in Experimental Example 29.
The inhibition rate herein was obtained according to the expression: 100×(1-F1/F0), where the fluorescent intensity of cells when a test substance was added is represented by F1, and the fluorescent intensity of cells when a reference substance (DMSO) was added is represented by F0.
The growth suppressive effect in metastatic foci (region within 300 to 450 μm from a transplanted tumor) of cancer stem cells was evaluated based on the following criteria. • A: Inhibition rate is 70 or more (growth suppressive effect against metastatic foci (region within 300 to 450 μm from a transplanted tumor) of cancer stem cells is extremely high) • B: Inhibition rate is 50 or more and less than 70 (growth suppressive effect against metastatic foci (region within 300 to 450 μm from a transplanted tumor) of cancer stem cells is high) • C: Inhibition rate is less than 50 (growth suppressive effect against metastatic foci (region within 300 to 450 μm from a transplanted tumor) of cancer stem cells is low)

The mark [7] stands for this setting: read-out: Evaluation (cancer cell growth rate).
The mark [8] stands for this setting: relative to 0.1% DMSO (100), read-out: Cancer cell growth rate (%).
Where [9] appears, read: read-out: Growth suppression evaluated.
The mark [10] stands for this setting: relative to 0.1% DMSO, read-out: ALDH(+) (growth rate).

Like-named read-outs stand apart in the source and are kept apart here. A value given as a limit tells only on which side of the number the result lay.

For `CC[N+]1=C(/C=c2\s/c(=C/c3ccc4c(c3)C3CCCC3N4c3ccccc3)c(=O)n2CC(=O)O)C(C)(C)c2ccccc21` (stereo not drawn) [Compound 15], the Excitation wavelength λex in data set [1] amounted to 568 nm. In data set [1], this molecule registered a Fluorescence wavelength λem of 643 nm. The activity at 10 µg/mL in data set [2] (setting [7]) is below 20%; in data set [2] (setting [8]) it was 9%; in data set [3] (setting [7]), below 20%; in data set [3] (setting [8]), 7.1%; in data set [4] (setting [9]) it was below 50%; in data set [4] (setting [10]) it was 21%. For the same molecule, the activity at 10 µg/mL in data set [5] was determined as 26%.
The molecule `CCn1c2ccccc2c2cc(/C=c3/s/c(=C\C4=[N+](CC)c5ccccc5C4(C)C)n(CC(=O)O)c3=O)ccc21` [Compound 20] had an Excitation wavelength λex in data set [1] of 493 nm. In data set [1], this molecule showed a Fluorescence wavelength λem of 585 nm. The activity at 10 µg/mL in data set [2] (setting [7]) is 20 to 50%; in data set [2] (setting [8]) it was 22.3%; in data set [3] (setting [7]) it was below 20%; in data set [3] (setting [8]), 4.8%; in data set [4] (setting [9]) it was below 50%; in data set [4] (setting [10]) it was 14%. Besides, the activity at 10 µg/mL in data set [5] was determined as 25%.
`CCC[N+]1=C(/C=C/C=C/c2ccc(N(C)C)cc2)C(C)(C)c2ccccc21` [Compound 26] came in with an Excitation wavelength λex in data set [1] of 609 nm. The Fluorescence wavelength λem in data set [1] came to 692 nm. The activity at 10 µg/mL is below 20% in data set [2] (setting [7]), 8.9% in data set [2] (setting [8]), below 20% in data set [3] (setting [7]) and 5.8% in data set [3] (setting [8]).
On to `Cc1nc(Nc2ncc(C(=O)Nc3c(C)cccc3Cl)s2)cc(N2CCN(CCO)CC2)n1` [Dasatinib], for which, in data set [6] (0.5 μm in breeding water), the “Evaluation (inhibition rate in metastatic foci)” value is “C (Inhibition rate is less than 50)”. The molecule also displayed an Inhibition rate in data set [6] (final concentration of 0.5 μm in breeding water, 100×(1-F1/F0) versus DMSO) of 36.
Regarding `CCn1c2ccccc2c2cc(/C=C3/SC(=S)N(CC(=O)O)C3=O)ccc21` [compound 4, reference compound], the activity at 10 µg/mL in data set [2] (setting [7]) was at least 50%; in data set [2] (setting [8]), 100%; in data set [3] (setting [7]), at least 50%; in data set [3] (setting [8]), 99.9%.
